Data as given in patent US12648979B2, “Compositions comprising sulforaphane or a sulforaphane precursor and Moringa plant components” (Nutramax Laboratories, Inc., priority 2021, dated 2026).

Legend:
[1] = tested on: broccoli sprout-derived myrosinase; experiment: Consumption of glucoraphanin by myrosinase as a function of ascorbic acid concentration (Example 3); type: biochemical
Method: A […] Interaction Chromatographic (HILIC) method was developed, comprising the following conditions: • Column: Waters BEH Amide, 1.7-μm particle size; 2.1 mm×100 mm; • Mobile Phase: 20% 10 mM Ammonium Acetate, pH 5.0; 80% acetonitrile; • Separation mode: isocratic; • Column Temperature: 70° C.; • Flow Rate: 0.7 mL/min.
About 250 mg of broccoli seed extract containing about 12% (w/w) glucoraphanin were subjected to hydrolysis by a fixed concentration of broccoli sprout-derived myrosinase in the presence of variable concentration of ascorbic acid, ranging from 0 to 600 μmoles/Liter. The reaction mixtures were thermostated at 38° C.; aliquots were withdrawn every 15 minutes for 60 minutes, and concentration of glucoraphanin determined chromatographically. The rate of glucoraphanin consumption was interpreted as the rate its conversion to sulforaphane. Graphical representation of glucoraphanin content reduction as a function of increasing ascorbic acid concentration results in a series of linear plots; the slopes of the linear regression lines reflect the rate of glucoraphanin consumption, in pmoles/minute. It is apparent that in the presence of 600 μmoles/Liter concentration of ascorbic acid, the reaction rate increased 13-fold relative to that which proceeded in the absence of modulatory effects of ascorbic acid.

[2] = tested on: myrosinase; experiment: Equimolar conversion of glucoraphanin to sulforaphane by myrosinase, HPLC (Example 4); type: biochemical, broccoli
Method: A two-part experiment was conducted to further elucidate the role of ascorbic acid in modulating myrosinase activity. All solutions were prepared in 20 mM Tris-buffered saline, at pH 7.5, previously identified as an optimal for myrosinase activity; each sample tube had 100 mg of freeze-dried broccoli powder accurately weighed in as a source of myrosinase. Experiment was conducted at 38° C. for 2 hours, with sample aliquots removed in 30-minute increments, and both glucoraphanin and sulforaphane content assessed by HPLC. […] A control sample contained no ascorbic acid, and the enzymatic conversion proceeded unassisted by a co-factor. PART 1. In the presence of the fixed concentration of ascorbic acid, 1 mmol/Liter, an increasing amount of broccoli seed extract (about 12% glucoraphanin, w/w) was added, ranging from 250 mg to 500 mg. PART 2. While keeping the amount of broccoli seed extract fixed at 250 mg, the concentration of ascorbic acid was varied from 0.4 mmol/Liter to 3.8 mmol/Liter.

[3] = GR 250 mg AA 0.0 mM (control), 0 min
[4] = GR 250 mg AA 0.0 mM (control), 30 min
[5] = GR 250 mg AA 0.0 mM (control), 60 min
[6] = GR 250 mg AA 0.0 mM (control), 90 min
[7] = GR 250 mg AA 0.0 mM (control), 120 min
[8] = PART 1, GR 250 mg AA 1.0 mM, 0 min
[9] = PART 2, GR 250 mg AA 1.0 mM, 0 min

- Glucoraphanin [2, 3]: 58.02 µmol
- Sulforaphane [2, 3]: 3.42 µmol
- Glucoraphanin [2, 4]: 48.57 µmol
- Sulforaphane [2, 4]: 12.08 µmol
- Glucoraphanin [2, 5]: 37.52 µmol
- Sulforaphane [2, 5]: 22.27 µmol
- Glucoraphanin [2, 6]: 28.58 µmol
- Sulforaphane [2, 6]: 33.17 µmol
- Glucoraphanin [2, 7]: 15.67 µmol
- Sulforaphane [2, 7]: 42.89 µmol
- Glucoraphanin ([2]; GR 250 mg AA 0.4 mM, 0 min): 45.66 µmol
- Sulforaphane ([2]; GR 250 mg AA 0.4 mM, 0 min): 15.96 µmol
- Sulforaphane ([2]; GR 250 mg AA 0.4 mM, 30 min): 62.06 µmol
- Sulforaphane ([2]; GR 250 mg AA 0.4 mM, 60 min): 61.01 µmol
- Sulforaphane ([2]; GR 250 mg AA 0.4 mM, 90 min): 60.88 µmol
- Sulforaphane ([2]; GR 250 mg AA 0.4 mM, 120 min): 56.90 µmol
- Glucoraphanin ([2]; GR 250 mg AA 2.0 mM, 0 min): 24.94 µmol
- Sulforaphane ([2]; GR 250 mg AA 2.0 mM, 0 min): 36.05 µmol
- Sulforaphane ([2]; GR 250 mg AA 2.0 mM, 30 min): 60.85 µmol
- Sulforaphane ([2]; GR 250 mg AA 2.0 mM, 60 min): 59.78 µmol
- Sulforaphane ([2]; GR 250 mg AA 2.0 mM, 90 min): 59.85 µmol
- Sulforaphane ([2]; GR 250 mg AA 2.0 mM, 120 min): 58.08 µmol
- Glucoraphanin ([2]; GR 250 mg AA 2.9 mM, 0 min): 22.24 µmol
- Sulforaphane ([2]; GR 250 mg AA 2.9 mM, 0 min): 38.20 µmol
- Sulforaphane ([2]; GR 250 mg AA 2.9 mM, 30 min): 59.95 µmol
- Sulforaphane ([2]; GR 250 mg AA 2.9 mM, 60 min): 59.34 µmol
- Sulforaphane ([2]; GR 250 mg AA 2.9 mM, 90 min): 58.77 µmol
- Sulforaphane ([2]; GR 250 mg AA 2.9 mM, 120 min): 56.99 µmol
- Glucoraphanin ([2]; GR 250 mg AA 3.8 mM, 0 min): 21.70 µmol
- Sulforaphane ([2]; GR 250 mg AA 3.8 mM, 0 min): 37.87 µmol
- Sulforaphane ([2]; GR 250 mg AA 3.8 mM, 30 min): 58.77 µmol
- Sulforaphane ([2]; GR 250 mg AA 3.8 mM, 60 min): 57.79 µmol
- Sulforaphane ([2]; GR 250 mg AA 3.8 mM, 90 min): 58.41 µmol
- Sulforaphane ([2]; GR 250 mg AA 3.8 mM, 120 min): 56.17 µmol
- Glucoraphanin ([2]; GR 300 mg AA 1.0 mM, 0 min): 49.31 µmol
- Sulforaphane ([2]; GR 300 mg AA 1.0 mM, 0 min): 24.18 µmol
- Sulforaphane ([2]; GR 300 mg AA 1.0 mM, 30 min): 74.40 µmol
- Sulforaphane ([2]; GR 300 mg AA 1.0 mM, 60 min): 73.04 µmol
- Sulforaphane ([2]; GR 300 mg AA 1.0 mM, 90 min): 72.19 µmol
- Sulforaphane ([2]; GR 300 mg AA 1.0 mM, 120 min): 70.56 µmol
- Glucoraphanin ([2]; GR 350 mg AA 1.0 mM, 0 min): 61.41 µmol
- Sulforaphane ([2]; GR 350 mg AA 1.0 mM, 0 min): 25.00 µmol
- Sulforaphane ([2]; GR 350 mg AA 1.0 mM, 30 min): 84.92 µmol
- Sulforaphane ([2]; GR 350 mg AA 1.0 mM, 60 min): 84.02 µmol
- Sulforaphane ([2]; GR 350 mg AA 1.0 mM, 90 min): 83.19 µmol
- Sulforaphane ([2]; GR 350 mg AA 1.0 mM, 120 min): 80.02 µmol
- Glucoraphanin ([2]; GR 400 mg AA 1.0 mM, 0 min): 71.35 µmol
- Sulforaphane ([2]; GR 400 mg AA 1.0 mM, 0 min): 26.71 µmol
- Glucoraphanin ([2]; GR 400 mg AA 1.0 mM, 30 min): 1.56 µmol
- Sulforaphane ([2]; GR 400 mg AA 1.0 mM, 30 min): 96.60 µmol
- Sulforaphane ([2]; GR 400 mg AA 1.0 mM, 60 min): 95.38 µmol
- Sulforaphane ([2]; GR 400 mg AA 1.0 mM, 90 min): 93.39 µmol
- Sulforaphane ([2]; GR 400 mg AA 1.0 mM, 120 min): 91.16 µmol
- Glucoraphanin ([2]; GR 500 mg AA 1.0 mM, 0 min): 89.41 µmol
- Sulforaphane ([2]; GR 500 mg AA 1.0 mM, 0 min): 33.52 µmol
- Glucoraphanin ([2]; GR 500 mg AA 1.0 mM, 30 min): 1.01 µmol
- Sulforaphane ([2]; GR 500 mg AA 1.0 mM, 30 min): 120.16 µmol
- Sulforaphane ([2]; GR 500 mg AA 1.0 mM, 60 min): 116.45 µmol
- Sulforaphane ([2]; GR 500 mg AA 1.0 mM, 90 min): 118.45 µmol
- Sulforaphane ([2]; GR 500 mg AA 1.0 mM, 120 min): 112.34 µmol
- Glucoraphanin [2, 8]: 40.07 µmol
- Sulforaphane [2, 8]: 21.51 µmol
- Sulforaphane ([2]; PART 1, GR 250 mg AA 1.0 mM, 30 min): 61.95 µmol
- Sulforaphane ([2]; PART 1, GR 250 mg AA 1.0 mM, 60 min): 60.20 µmol
- Sulforaphane ([2]; PART 1, GR 250 mg AA 1.0 mM, 90 min): 60.04 µmol
- Sulforaphane ([2]; PART 1, GR 250 mg AA 1.0 mM, 120 min): 58.25 µmol
- Glucoraphanin [2, 9]: 35.24 µmol
- Sulforaphane [2, 9]: 26.49 µmol
- Sulforaphane ([2]; PART 2, GR 250 mg AA 1.0 mM, 30 min): 62.19 µmol
- Sulforaphane ([2]; PART 2, GR 250 mg AA 1.0 mM, 60 min): 60.62 µmol
- Sulforaphane ([2]; PART 2, GR 250 mg AA 1.0 mM, 90 min): 60.41 µmol
- Sulforaphane ([2]; PART 2, GR 250 mg AA 1.0 mM, 120 min): 59.10 µmol
- time to complete conversion of glucoraphanin to sulforaphane ([2]; almost all the reaction mixtures): ≤ 30 min
SMILES: C[S+]([O-])CCCC/C(=N\OS(=O)(=O)O)S[C@@H]1O[C@H](CO)[C@@H](O)[C@H](O)[C@H]1O (some centres unmarked) [GR, 4-methylsulfinylbutyl glucosinolate]
- Slope (rate of glucoraphanin consumption) ([1]; ascorbic acid 0 μM): -0.09293 µmol/min
- Glucoraphanin content (μmoles GR) ([1]; ascorbic acid 0 μM, 0 min): 93.36 µmol
- Glucoraphanin content (μmoles GR) ([1]; ascorbic acid 0 μM, 15 min): 92.24 µmol
- Glucoraphanin content (μmoles GR) ([1]; ascorbic acid 0 μM, 30 min): 90.71 µmol
- Glucoraphanin content (μmoles GR) ([1]; ascorbic acid 0 μM, 45 min): 89.44 µmol
- Glucoraphanin content (μmoles GR) ([1]; ascorbic acid 0 μM, 60 min): 87.79 µmol
- Slope (rate of glucoraphanin consumption) ([1]; ascorbic acid 50 μM): -0.286 µmol/min
- Glucoraphanin content (μmoles GR) ([1]; ascorbic acid 50 μM, 0 min): 93.36 µmol
- Glucoraphanin content (μmoles GR) ([1]; ascorbic acid 50 μM, 15 min): 89.20 µmol
- Glucoraphanin content (μmoles GR) ([1]; ascorbic acid 50 μM, 30 min): 84.24 µmol
- Glucoraphanin content (μmoles GR) ([1]; ascorbic acid 50 μM, 45 min): 80.30 µmol
- Glucoraphanin content (μmoles GR) ([1]; ascorbic acid 50 μM, 60 min): 76.36 µmol
- Slope (rate of glucoraphanin consumption) ([1]; ascorbic acid 125 μM): -0.5622 µmol/min
- Glucoraphanin content (μmoles GR) ([1]; ascorbic acid 125 μM, 0 min): 93.36 µmol
- Glucoraphanin content (μmoles GR) ([1]; ascorbic acid 125 μM, 15 min): 84.52 µmol
- Glucoraphanin content (μmoles GR) ([1]; ascorbic acid 125 μM, 30 min): 75.92 µmol
- Glucoraphanin content (μmoles GR) ([1]; ascorbic acid 125 μM, 45 min): 68.09 µmol
- Glucoraphanin content (μmoles GR) ([1]; ascorbic acid 125 μM, 60 min): 59.41 µmol
- Slope (rate of glucoraphanin consumption) ([1]; ascorbic acid 250 μM): -0.7901 µmol/min
- Slope (rate of glucoraphanin consumption) ([1]; ascorbic acid 250 μM Filtered): -0.4714 µmol/min
- Glucoraphanin content (μmoles GR) ([1]; ascorbic acid 250 μM Filtered, 0 min): 93.36 µmol
- Glucoraphanin content (μmoles GR) ([1]; ascorbic acid 250 μM Filtered, 15 min): 86.31 µmol
- Glucoraphanin content (μmoles GR) ([1]; ascorbic acid 250 μM Filtered, 30 min): 79.44 µmol
- Glucoraphanin content (μmoles GR) ([1]; ascorbic acid 250 μM Filtered, 45 min): 71.94 µmol
- Glucoraphanin content (μmoles GR) ([1]; ascorbic acid 250 μM Filtered, 60 min): 65.18 µmol
- Glucoraphanin content (μmoles GR) ([1]; ascorbic acid 250 μM, 0 min): 93.36 µmol
- Glucoraphanin content (μmoles GR) ([1]; ascorbic acid 250 μM, 15 min): 80.95 µmol
- Glucoraphanin content (μmoles GR) ([1]; ascorbic acid 250 μM, 30 min): 69.06 µmol
- Glucoraphanin content (μmoles GR) ([1]; ascorbic acid 250 μM, 45 min): 57.63 µmol
- Glucoraphanin content (μmoles GR) ([1]; ascorbic acid 250 μM, 60 min): 45.76 µmol
- Slope (rate of glucoraphanin consumption) ([1]; ascorbic acid 400 μM): -1.007 µmol/min
- Glucoraphanin content (μmoles GR) ([1]; ascorbic acid 400 μM, 0 min): 93.36 µmol
- Glucoraphanin content (μmoles GR) ([1]; ascorbic acid 400 μM, 15 min): 78.32 µmol
- Glucoraphanin content (μmoles GR) ([1]; ascorbic acid 400 μM, 30 min): 62.78 µmol
- Glucoraphanin content (μmoles GR) ([1]; ascorbic acid 400 μM, 45 min): 47.67 µmol
- Glucoraphanin content (μmoles GR) ([1]; ascorbic acid 400 μM, 60 min): 33.15 µmol
- Slope (rate of glucoraphanin consumption) ([1]; ascorbic acid 600 μM): -1.2 µmol/min
- Glucoraphanin content (μmoles GR) ([1]; ascorbic acid 600 μM, 0 min): 93.36 µmol
- Glucoraphanin content (μmoles GR) ([1]; ascorbic acid 600 μM, 15 min): 75.02 µmol
- Glucoraphanin content (μmoles GR) ([1]; ascorbic acid 600 μM, 30 min): 55.66 µmol
- Glucoraphanin content (μmoles GR) ([1]; ascorbic acid 600 μM, 45 min): 37.50 µmol
- Glucoraphanin content (μmoles GR) ([1]; ascorbic acid 600 μM, 60 min): 22.09 µmol
- stoichiometry of conversion of glucoraphanin to sulforaphane ([2]; control sample, without ascorbic acid): equimolar conversion of glucoraphanin to sulforaphane
